Results on one substance are retold here after article PMC10102842 (Clinical cancer research : an official journal of the …, 2023).

pIC50: −log10 of the molar value.

This test addresses DNA polymerase theta (Polθ) (Homo sapiens, UniProt O75417). Nature of the test: Nano-luciferase MMEJ reporter assay in HEK-293 cells. The format is cell-based. (In general: Reporter assays use an easily measured gene product as a stand-in for the process of interest.)

Sequence of DNA polymerase theta (Polθ) (O75417 whole entry): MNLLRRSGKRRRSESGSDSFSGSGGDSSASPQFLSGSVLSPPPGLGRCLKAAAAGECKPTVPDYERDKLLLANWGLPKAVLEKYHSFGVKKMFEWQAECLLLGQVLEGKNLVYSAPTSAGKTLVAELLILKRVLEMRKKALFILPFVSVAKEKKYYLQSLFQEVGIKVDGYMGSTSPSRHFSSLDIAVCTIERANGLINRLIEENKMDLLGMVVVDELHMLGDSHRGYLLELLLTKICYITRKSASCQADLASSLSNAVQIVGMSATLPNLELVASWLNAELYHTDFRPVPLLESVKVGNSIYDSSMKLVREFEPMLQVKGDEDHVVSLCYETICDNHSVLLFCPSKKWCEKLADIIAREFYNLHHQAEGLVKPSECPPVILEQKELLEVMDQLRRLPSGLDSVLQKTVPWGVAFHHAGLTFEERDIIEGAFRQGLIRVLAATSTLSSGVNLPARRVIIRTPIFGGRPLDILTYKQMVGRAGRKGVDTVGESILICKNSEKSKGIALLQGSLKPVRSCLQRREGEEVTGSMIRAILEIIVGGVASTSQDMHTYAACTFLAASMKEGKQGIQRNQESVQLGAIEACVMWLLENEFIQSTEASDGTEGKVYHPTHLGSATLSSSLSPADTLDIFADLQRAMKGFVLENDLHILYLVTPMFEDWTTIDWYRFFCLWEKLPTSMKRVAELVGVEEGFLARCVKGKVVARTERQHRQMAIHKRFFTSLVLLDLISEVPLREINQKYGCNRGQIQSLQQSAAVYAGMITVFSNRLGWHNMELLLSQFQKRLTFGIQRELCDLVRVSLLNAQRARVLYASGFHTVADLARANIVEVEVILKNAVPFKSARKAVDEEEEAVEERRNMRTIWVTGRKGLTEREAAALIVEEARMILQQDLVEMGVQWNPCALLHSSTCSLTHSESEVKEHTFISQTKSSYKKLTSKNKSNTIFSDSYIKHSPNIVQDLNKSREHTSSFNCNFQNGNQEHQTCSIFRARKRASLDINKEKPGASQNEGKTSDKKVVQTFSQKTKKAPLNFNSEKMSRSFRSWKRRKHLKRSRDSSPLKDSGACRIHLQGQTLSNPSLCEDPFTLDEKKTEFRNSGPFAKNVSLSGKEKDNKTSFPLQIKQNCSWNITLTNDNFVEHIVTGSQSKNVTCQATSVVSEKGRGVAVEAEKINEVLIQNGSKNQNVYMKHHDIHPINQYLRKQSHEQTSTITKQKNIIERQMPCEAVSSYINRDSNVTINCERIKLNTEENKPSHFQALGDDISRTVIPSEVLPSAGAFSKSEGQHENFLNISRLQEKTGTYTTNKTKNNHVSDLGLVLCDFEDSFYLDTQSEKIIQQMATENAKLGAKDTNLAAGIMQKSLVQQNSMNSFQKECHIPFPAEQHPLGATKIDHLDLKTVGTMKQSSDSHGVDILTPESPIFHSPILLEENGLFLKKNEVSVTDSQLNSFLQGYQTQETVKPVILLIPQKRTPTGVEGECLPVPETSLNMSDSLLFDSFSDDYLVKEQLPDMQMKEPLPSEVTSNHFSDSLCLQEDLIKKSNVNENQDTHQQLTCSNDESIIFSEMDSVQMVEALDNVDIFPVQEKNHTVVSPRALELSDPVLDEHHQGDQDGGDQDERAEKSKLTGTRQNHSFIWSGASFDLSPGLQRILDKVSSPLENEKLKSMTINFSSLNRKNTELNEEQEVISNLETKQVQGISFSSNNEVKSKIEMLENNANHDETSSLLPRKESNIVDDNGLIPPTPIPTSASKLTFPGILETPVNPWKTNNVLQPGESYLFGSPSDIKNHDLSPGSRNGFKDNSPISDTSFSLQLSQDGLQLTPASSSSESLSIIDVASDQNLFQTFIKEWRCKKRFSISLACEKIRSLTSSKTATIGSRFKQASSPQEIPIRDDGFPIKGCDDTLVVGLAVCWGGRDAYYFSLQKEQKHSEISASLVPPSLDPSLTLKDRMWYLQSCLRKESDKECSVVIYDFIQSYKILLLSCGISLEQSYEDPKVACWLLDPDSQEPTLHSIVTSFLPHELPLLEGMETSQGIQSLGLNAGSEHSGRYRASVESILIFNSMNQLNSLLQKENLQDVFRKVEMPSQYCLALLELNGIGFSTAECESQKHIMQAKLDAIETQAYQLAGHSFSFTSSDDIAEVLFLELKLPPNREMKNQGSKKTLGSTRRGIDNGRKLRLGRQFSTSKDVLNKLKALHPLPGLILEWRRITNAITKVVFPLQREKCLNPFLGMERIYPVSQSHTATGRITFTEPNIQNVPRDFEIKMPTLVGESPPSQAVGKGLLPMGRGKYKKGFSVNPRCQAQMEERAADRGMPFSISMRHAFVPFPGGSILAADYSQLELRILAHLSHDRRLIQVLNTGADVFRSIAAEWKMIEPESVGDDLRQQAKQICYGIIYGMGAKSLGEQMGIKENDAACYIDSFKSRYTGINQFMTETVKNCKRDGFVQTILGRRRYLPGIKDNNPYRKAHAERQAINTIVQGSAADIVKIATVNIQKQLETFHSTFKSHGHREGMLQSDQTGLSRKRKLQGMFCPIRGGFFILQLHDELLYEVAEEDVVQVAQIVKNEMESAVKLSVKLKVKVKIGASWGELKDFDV

Turning to ART899, the pIC50 (usually −log10 of the IC50, conventionally taken in molar units) is around 6.74.
